Test results from patent US20240239806A1, “COMPOUNDS, COMPOSITIONS AND METHODS OF TREATING DISORDERS” (Chengdu Anticancer Bioscience, Ltd., priority 2021, published 2024).

How the values were obtained:
[1] = system: NCI-H2170; test: MTT assay of cellular proliferation; assay type: cell-based; conditions: Homo sapiens, 50% inhibition of cellular proliferation
How it was run: (§1)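 EC50 values reflect the compound concentration that halved proliferation, judged by mitochondrial reduction of MTT to formazan measured at A570. Drug exposure spanned 1 nM to 30 μM after cells reached 20-30% confluence in DMEM with 5% FBS.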

[2] = system: Calu-6; test: MTT assay of cellular proliferation; assay type: cell-based; conditions: Homo sapiens; Calu-6, MTT, 50% inhibition of cellular proliferation
How it was run: as §1

[3] = system: NCI-N87; test: MTT assay of cellular proliferation; assay type: cell-based; conditions: Homo sapiens, 50% inhibition of cellular proliferation
How it was run: as §1

[4] = system: A549; test: MTT assay of cellular proliferation; assay type: cell-based; conditions: Homo sapiens, 50% inhibition of cellular proliferation
How it was run: as §1

[5] = system: DU145; test: MTT assay of cellular proliferation; assay type: cell-based; conditions: Homo sapiens, DU-145, 50% inhibition of cellular proliferation
How it was run: as §1

[6] = system: T98G; test: MECP in cancer cell line; assay type: cell-based; conditions: Homo sapiens
How it was run: (§2)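 DMEM, 5% FBS, 37 °C, 5% CO2; dose range 1 nM–30 μM; endpoints MI (24 h), polyploidy (48 h), 72 h DNA content by imaging; categorical A–D output.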

[7] = system: NCI-N87; test: MECP in cancer cell line; assay type: cell-based; conditions: Homo sapiens
How it was run: as §2

[8] = system: cervical cancer cell line Hela; test: Soft agar colony formation assay; assay type: cell-based, human
From the text: Measuring the ability of cells to grow in soft agar has been popularly believed as the gold standard assay for cellular transformation in vitro. In the Soft Agar Assay, cells grow from single cells to cell colonies in a semi-solid agar solution that keeps them away from the solid surface and allows growth in an anchorage-independent way.
The anchorage-independent growth of cells is one of the hallmarks of cancer cells. Normal epithelial cells are supported by basement membranes that provide survival and proliferative signals while undergo a type of apoptosis called anoikis when lose their attachment to the extracellular matrix. Cancer cells, in contrast, evade detachment-induced apoptosis, leading to uncontrolled proliferation and metastasis. The Soft Agar Colony Formation Assay allows testing of the therapeutic efficacy of compounds against anchorage-independent 3D growth of cancer cells in vin. The assay was performed in 6-well plates with two layers of agar. For the first, 0.75% agar in DMEM medium was melted in a microwave oven and poured to form a bottom layer. Once solidified, 10-100K cells in 1 ml of DMEM containing 0.35% agar was added to form the top layer, which was later covered with 0.5 ml of DMEM. Cell culture medium was changed once every two days until colonies were ready to photograph. We test the antitumor activity of select compounds in soft agar colony formation assays. […] The suppression of growth of these three cancer cell lines in 3D culture is consistent with the potent impact of these compounds on cellular proliferation in 2D culture.

[9] = system: SW480; test: MTT assay of cellular proliferation; assay type: cell-based; conditions: Homo sapiens, 50% inhibition of cellular proliferation
How it was run: as §1

Row | Structure (SMILES) | EC50 [1] [nM] | EC50 [2] [nM] | EC50 [3] [nM] | EC50 [4] [nM] | EC50 [5] [nM] | minimal effective concentration [6] [µM] | minimal effective concentration [7] [µM] | anchorage-independent growth in soft agar [8] | EC50 [9] [nM]
1 | COC(=O)c1cc(Oc2ncnc3cc[nH]c23)cc(C(=O)OC)c1 [Compound 36, dimethyl 5-((5H-pyrrolo[3,2-d]pyrimidin-4-yl)oxy)isophthalate] | 1 to 1000 | 1 to 1000 | 1 to 1000 | > 30000 | 1 to 1000 | 0.001 to 1 | 0.001 to 1 | effectively suppressed the anchorage-independent growth | 
2 | COc1cc(OC)cc(Oc2ccnc3ccccc23)c1 [Compound 7, 4-(3,5-dimethoxyphenoxy)quinoline] |  |  |  |  |  | 0.001 to 1 |  | effectively suppressed the anchorage-independent growth | 
3 | COC(=O)c1cc(OC)cc(Oc2ncnc3ccsc23)c1 [Compound 37, methyl 3-methoxy-5-(thieno[3,2-d]pyrimidin-4-yloxy)benzoate] | 1 to 1000 | 1 to 1000 | 1 to 1000 | > 30000 | 1 to 1000 | 1 to 10 | 0.001 to 1 |  | 1 to 1000
4 | COC(=O)c1cc(OC)cc(Oc2ncnc3cc[nH]c23)c1 [Compound 34, methyl 3-((5H-pyrrolo[3,2-d]pyrimidin-4-yl)oxy)-5-methoxybenzoate] | 1 to 1000 | 1 to 1000 | 1 to 1000 | > 30000 | 1 to 1000 | 1 to 10 | 0.001 to 1 |  | 1000 to 10000
5 | COC(=O)c1cc(Oc2ncnc3ccsc23)cc(C(=O)OC)c1 [Compound 39, dimethyl 5-(thieno[3,2-d]pyrimidin-4-yloxy)isophthalate] | 1000 to 10000 | 1 to 1000 | 1 to 1000 | > 30000 | 1 to 1000 | 0.001 to 1 | 0.001 to 1 | effectively suppressed the anchorage-independent growth | 
6 | COC(=O)c1cc(OC)cc(Oc2ncnc3cc(OC)c(OC)cc23)c1 [Compound 29] | 1 to 1000 | 1 to 1000 | 1 to 1000 | > 30000 | 1 to 1000 | 1 to 10 | 0.001 to 1 |  | 1000 to 10000
